# Tests used:
# [1] = siRNA / mRNA encapsulation rate of lipid nanoparticle (RiboGreen); assay type: physicochemical; conditions: siRNA encapsulation rate of lipid nanoparticle
# Method: The siRNA encapsulation rate and the mRNA encapsulation rate of the lipid nanoparticle were obtained as follows. First, a surfactant (Sigma-Aldrich, Triton (registered trademark), X-100 (reducing type)) was added to the lipid nanoparticle-containing solution to disrupt the lipid nanoparticle to release the encapsulated siRNA or mRNA. The amounts of the lipid nanoparticle-containing solution and the surfactant were adjusted such that the siRNA or the mRNA was 2 pmol and the surfactant was 1% in 40 μL of the solution after adding the surfactant to the lipid nanoparticle-containing solution. Next, the RiboGreen reagent (reagent that reacts with siRNA to emit fluorescence, manufactured by Thermo Fisher Scientific, Quant-iT (registered trademark) RiboGreen (registered trademark) RNA Assay Kit) was added to the solution, and the fluorescence intensity was measured under conditions of an excitation wavelength of 480 nm and a fluorescence wavelength of 520 nm with a fluorescence intensity meter (manufactured by TECAN, Infinite M200). Specifically, 75 μL of the RiboGreen reagent diluted to 1/2000 was added to a diluted solution obtained by adding 65 μL of citrate buffer to 10 μL of the solution, and the fluorescence intensity was measured. This makes it possible to relatively measure the total amount of the siRNA or the total amount of the mRNA present in the solution.
# Subsequently, the RiboGreen reagent was added to the lipid nanoparticle-containing solution without adding a surfactant, and the fluorescence intensity was measured in the same manner with a fluorescence intensity meter. By not adding a surfactant, it is possible to relatively measure the amount of the siRNA or the mRNA free in the solution without being encapsulated in the lipid nanoparticle.
# Then, the fluorescence intensity obtained from the solution to which the surfactant was added obtained as described above was fluorescence intensity a, and the fluorescence intensity thus obtained from the solution to which no surfactant was added obtained as described above was fluorescence intensity b, and according to the expression (a−b)/a×100, the siRNA encapsulation rate (%) or the mRNA encapsulation rate (%) of the lipid nanoparticle was obtained. Each of fluorescence intensity a and fluorescence intensity b is a value obtained by subtracting a blank from the arithmetic average value of the results of three measurements for each solution. The blank was measured by carrying out the same operation on a well containing water containing no cell or lipid nanoparticle.
# [2] = Measurement of particle size, polydispersity index and zeta potential of lipid nanoparticle (Zetasizer); assay type: physicochemical; conditions: lipid nanoparticle containing siRNA; for Particle size (nm) / PDI: main lipid/DPPC/cholesterol=45/10/45; for Particle size (nm): Z-average in ultrapure water; for PDI: ultrapure water; for Zeta potential (mV): pH 7.4 Tris-HCl
# Method: 30 μL of each of the dialyzed lipid nanoparticle-containing solutions obtained by the above operation was measured out, 800 μL of ultrapure water was added to dilute the lipid nanoparticle-containing solution, and the diluted preparation solution was used to measure the particle size (nm) and the polydispersity index (PDI) by using a Zetasizer (manufactured by Malvern Panalytical, Zetasizer nano Ultra). The particle size was evaluated by Z-average in ultrapure water. The zeta potential was measured by using pH 7.4 Tris-HCl as a dilute solution.
# [3] = test system: HT1080-EGFP (human/fibrosarcoma) cells; assay: Evaluation of toxicity: CCK-8 assay; assay type: cell-based; conditions: lipid nanoparticle containing siRNA; absorbance relative to control cells without lipid nanoparticle set at 1.00
# Method: (§1) A. Provision of Cells • (i) A liquid medium (DMEM/Ham's F12, FBS+, P/S+) (FBS: fetal bovine serum, P/S: antibiotic) was taken out from a refrigerator and temperature-controlled in an incubator set at 37° C. • (ii) A cryotube containing the cells was taken out from a −80° C. freezer and thawed at once in an incubator set at 37° C. • (iii) A stock solution of the thawed cells was collected in a capped test tube. • (iv) The tube containing the cells was washed with the liquid medium, and the wash was also collected in the test tube. • (v) The tube was subjected to a centrifuge to precipitate the cells. • (vi) The supernatant was aspirated, and the liquid medium was added and gently tapped to disperse the cells. • (vii) A small amount of the cells-dispersed liquid medium was collected, and the number of cells was observed and counted under a microscope. • (viii) The cells were seeded in a 24-well plate such that the number of cells was 2×10^4 cells per well. For the plate for an LDH assay described later, the cells were seeded in a 96-well plate such that the number of cells was 4×10^3 cells per well. • (ix) The 24-well plate or the 96-well plate was placed in an incubator, and the cells were cultured for 24 hours under conditions of 37° C. and 5% CO2.
# (§2) The produced lipid nanoparticles were introduced into cells. • (i) Fetal bovine serum (FBS) was added to a liquid medium (FBS-, P/S-) temperature-controlled as in (i) of A above, in such a way as to reach 10%. • (ii) A 24-well plate was taken out from an incubator, and the liquid medium supernatant in the 24-well plate was aspirated and washed with phosphate buffered saline (PBS). • (iii) 400 μL of the liquid medium produced in (i) above was added to the washed 24-well plate. In addition, 100 μL of an LNP solution having an adjusted concentration was added. • (iv) The 24-well plate was placed in the incubator, and the cells were cultured (for 24 hours). • (v) After 24 hours, the liquid medium supernatant in the 24-well plate was aspirated, and 500 μL of a liquid medium containing 10% FBS (FBS+/P/S+) was added. • (vi) The 24-well plate was placed in the incubator, and the cells were cultured for 24 hours under conditions of 37° C. and 5% CO2.
# For Examples 1 to 9, a CCK-8 assay or an LDH assay was carried out to measure the metabolic activity of viable cells and relatively quantify the number of surviving cells to evaluate the toxicity of lipid nanoparticles.
# (a) CCK-8 Assay • (i) Fetal bovine serum (FBS) and a viable cell counting kit (manufactured by DOJINDO LABORATORIES, Cell Count Kit-8) was added to a liquid medium (FBS-, P/S-) temperature-controlled as in (i) of A above, such that FBS was 10% and the kit was 10%. • (ii) A 24-well plate was taken out from an incubator. The liquid medium was removed, and 315 μL of the liquid medium containing the viable cell counting kit produced in (i) above was added. • (iii) The liquid medium was aged for 1 hour in the incubator. • (iv) The 24-well plate was taken out, and the absorbance was measured under conditions of a measurement wavelength of 450 nm and a target wavelength of 630 nm with a plate reader (manufactured by TECAN, Infinite M200). The absorbance was calculated with the absorbance of control cells to which no lipid nanoparticle was added set at 1.00. When the obtained value was 0.80 or more and 1.00 or less, a rating of double-circle (excellent) was given, when the obtained value was 0.50 or more and less than 0.80, a rating of circle (good) was given, when the obtained value was 0.20 or more and less than 0.50, a rating of triangle (fair) was given, and when the obtained value was less than 0.20, a rating of X-mark (poor) was given.
# [4] = test system: HT1080-EGFP (human/fibrosarcoma) cells; assay: Evaluation of knockdown effect (GFP assay), Cell experiment 1; assay type: cell-based; conditions: lipid nanoparticle containing siRNA against EGFP; fluorescence intensity with control cells without lipid nanoparticle set at 100
# Method: A cell experiment was carried out by using HT1080-EGFP (human/fibrosarcoma) cells in order to evaluate lipid nanoparticles encapsulating an siRNA produced by using the lipids of the Examples and the Comparative Examples. These cells are cells provided with a green fluorescent protein gene (EGFP). The expression of EGFP can be easily confirmed by measuring the fluorescence intensity of a solution in which the cells are lysed, and thus by acting lipid nanoparticles encapsulating an siRNA that suppresses the expression of EGFP and observing any decrease in fluorescence intensity, the performance of the lipid nanoparticles used can be evaluated. Hereinafter, the procedure of the cell experiment will be shown.
# as §1, §2
# By carrying out a GFP assay, the EGFP expression level in cells was measured to evaluate the effect of knocking down the green fluorescent protein gene (EGFP) by lipid nanoparticles. • (i) A 24-well plate was taken out from an incubator and washed with PBS. • (ii) A 1% octylglucoside solution to which a protease inhibitor was added was added in order to disrupt cells. Stirring with a pipette lysed the cells. • (iii) The cell lysate was transferred to an Eppendorf tube and subjected to a centrifuge. • (iv) 150 μL of the supernatant was collected and added to a plate for fluorescence measurement. • (v) The fluorescence intensity was measured under conditions of an excitation wavelength of 485 nm and a fluorescence wavelength of 535 nm with a plate reader (manufactured by TECAN, Infinite M200). The fluorescence intensity was calculated with the fluorescence intensity of control cells to which no lipid nanoparticle was added set at 100.
Encapsulation rate (%) [1] [%],Particle size (nm) [2] [nm],PDI [2],Zeta potential (mV) [2] [mV],SMILES,CCK Assay [3],GFP Assay [4]
100,94.2,0.159,8.28,"CCCCCCCC/C=C\CCCCCCCCC(CCCCCCC/C=C\CCCCCCCC)OC(=O)C(CC(=O)O)NC(=O)C(N)CCCCN (stereo not drawn) [Example 7, 3-(2,6-diaminohexanamido)-4-(((9Z,27Z)-hexatriaconta-9,27-dien-18-yl)oxy)-4-oxobutanoic acid]","◯ (when the obtained value was 0.50 or more and less than 0.80, a rating of circle (good) was given)",28
100,162.5,0.147,19.1,"CCCCCCCC/C=C\CCCCCCCCC(CCCCCCC/C=C\CCCCCCCC)OC(=O)C(CCC(=O)O)NC(=O)C(N)CCCCN (stereo not drawn) [Example 8, 4-(2,6-diaminohexanamido)-5-(((9Z,27Z)-hexatriaconta-9,27-dien-18-yl)oxy)-5-oxopentanoic acid]","⊚ (When the obtained value was 0.80 or more and 1.00 or less, a rating of double-circle (excellent) was given)",47
84,107.6,0.093,24.6,"CCCCCCCC/C=C\CCCCCCCCC(CCCCCCC/C=C\CCCCCCCC)OC(=O)C(CCC(=O)O)NC(=O)C(N)Cc1c[nH]cn1 (stereo not drawn) [Example 9, 4-(2-amino-3-(1H-imidazol-4-yl)propanamido)-5-(((9Z,27Z)-hexatriaconta-9,27-dien-18-yl)oxy)-5-oxopentanoic acid]","⊚ (When the obtained value was 0.80 or more and 1.00 or less, a rating of double-circle (excellent) was given)",56

# Source: US20240148664A1, “LIPID AND COMPOSITION” (SOGO PHARMACEUTICAL CO., LTD., priority 2021, published 2024)
